Measurements taken from BindingDB's records for doi:10.1021/np970376z (Aoyama Gakuin University, 1998).
pIC50: −log10 of the molar value.

Molecular target: Prothrombin (Homo sapiens, UniProt P00734)
Experiment: Inhibition of thrombin

Q: `C/C(=C\Cc1cc(O)ccc1O)CCC[C@@H](C)[C@@H](C[C@@H]1CCC[C@H]2C(C)(C)CCC[C@@]12C)OS(=O)(=O)O` was tested. Which pIC50 did it give?
A: The pIC50 was < 3.87.

Q: `CC1(C)CCC[C@H]2[C@H]1CC[C@@]1(C)[C@@H]2CC/C(=C\OS(=O)(=O)O)[C@@H]1CCc1ccoc1` [listing 1 of 2 here] was tested. Which pIC50 did it give?
A: Its pIC50 is 4.32.

Q: `CC1(C)CCC[C@H]2[C@H]1CC[C@@]1(C)[C@@H]2CC/C(=C\OS(=O)(=O)O)[C@@H]1CCc1ccoc1` [listing 2 of 2 here] was tested. Which pIC50 did it give?
A: Its pIC50 is 4.37.
